The values that follow come from patent US6426331B1, “Inhibitors of STAT function” (Tularik Inc., priority 1998, dated 2002).

Broadly, the IC50 is the midpoint of a concentration-inhibition curve. A high value points to lower potency.

One experiment deals with T1, STAT6 (Homo sapiens, UniProt P42226).
T1 sequence (P42226 1-847): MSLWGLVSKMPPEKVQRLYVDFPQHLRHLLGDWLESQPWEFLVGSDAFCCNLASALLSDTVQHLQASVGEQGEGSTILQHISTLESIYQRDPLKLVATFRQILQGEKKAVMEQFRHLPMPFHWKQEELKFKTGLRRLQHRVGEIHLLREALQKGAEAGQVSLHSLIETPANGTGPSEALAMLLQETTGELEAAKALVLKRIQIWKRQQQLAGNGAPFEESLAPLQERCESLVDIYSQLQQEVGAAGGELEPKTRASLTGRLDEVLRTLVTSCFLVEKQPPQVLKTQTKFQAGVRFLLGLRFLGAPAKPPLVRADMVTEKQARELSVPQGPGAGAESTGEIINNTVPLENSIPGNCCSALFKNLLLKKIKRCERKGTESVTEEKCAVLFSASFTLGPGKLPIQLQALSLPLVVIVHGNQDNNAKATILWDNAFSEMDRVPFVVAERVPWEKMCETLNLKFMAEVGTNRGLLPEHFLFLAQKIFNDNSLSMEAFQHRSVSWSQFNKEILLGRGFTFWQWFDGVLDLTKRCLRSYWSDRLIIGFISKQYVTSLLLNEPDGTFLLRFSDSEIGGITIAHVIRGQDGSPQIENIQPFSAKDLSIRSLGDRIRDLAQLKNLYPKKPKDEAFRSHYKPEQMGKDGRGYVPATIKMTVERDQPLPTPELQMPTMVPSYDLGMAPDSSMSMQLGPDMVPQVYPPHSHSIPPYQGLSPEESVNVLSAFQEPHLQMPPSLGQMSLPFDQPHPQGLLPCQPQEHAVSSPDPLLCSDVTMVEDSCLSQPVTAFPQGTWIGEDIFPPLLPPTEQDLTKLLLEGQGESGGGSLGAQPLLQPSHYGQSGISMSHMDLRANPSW
The experiment is described as follows: Inhibition of STAT6 binding (duplex formation). The note with it: Table 3; STAT6 binding. The procedure: The compounds of the present invention can be evaluated for STAT binding activity using methods such as those described in U.S. Pat. No. 6,207,391 (for STAT6 binding). Other assays for STAT binding can be found in, for example, U.S. Pat. Nos. 5,618,693, 5,639,858 and 5,756,700.
Using methods similar to those described in Examples 1 and 2, the compounds provided in Table 1 were prepared and evaluated as inhibitors of STAT6 binding (duplex formation). The assay is described in U.S. Pat. No. 6,207,391, filed Mar. 31, 1998. In each of the tables below: a + symbol indicates and IC50 of >100 μM; a ++ symbol indicates and IC50 of 50-100 μM; a +++ symbol indicates and IC50 of 1-50 μM; and a ++++ symbol indicates and IC50 of <1.0 μM.
Take `COc1ccc(N(C(=O)C2CCCN2C(=O)C(NC(=O)C=Cc2ccc(OP(=O)(O)O)cc2)C(C)(C)C)c2ccccc2)cc1` (stereo not shown) [drawing 69: OCH3]: the 50% inhibitory concentration (IC50) was under 1000 nM.

Staying with this experiment, now noted: Table 4; STAT6 binding.
For the molecule `CC(=O)NCc1cccc(N(Cc2ccc(C(N)=O)cc2)C(=O)C2CCCN2C(=O)C(NC(=O)C=Cc2ccc(OP(=O)(O)O)cc2)C(C)(C)C)c1` (stereo not shown) [drawing 70: 3-CH2NHAc, 4-CONH2], the IC50 is under 1000 nM.
On the same count and under the same terms, with `CC(=O)NCc1ccc(CN(C(=O)C2CCCN2C(=O)C(NC(=O)C=Cc2ccc(OP(=O)(O)O)cc2)C(C)(C)C)c2cccc(C(N)=O)c2)cc1` (stereo not shown) [drawing 70: 3-CONH2,4-CH2NHAc] the figure was under 1000 nM.
On the same count and under the same terms, with `CC(=O)NCc1ccc(N(Cc2ccc(C(N)=O)cc2)C(=O)C2CCCN2C(=O)C(NC(=O)C=Cc2ccc(OP(=O)(O)O)cc2)C(C)(C)C)cc1` (stereo not shown) [drawing 70: 4-CH2NHAc, 4-CONH2] the figure was under 1000 nM; with `CC(=O)NCc1ccc(CN(C(=O)C2CCCN2C(=O)C(NC(=O)C=Cc2ccc(OP(=O)(O)O)cc2)C(C)(C)C)c2ccc(C(N)=O)cc2)cc1` (stereo not shown) [drawing 70: 4-CONH2,4-CH2NHAc], under 1000 nM.
Same read-out and setting: in the case of `CC(C)(C)C(NC(=O)C=Cc1ccc(OP(=O)(O)O)cc1)C(=O)N1CCCC1C(=O)N(Cc1ccc(I)cc1)c1ccccc1` (stereo not shown) [drawing 70: H, 4-I] it was under 1000 nM.
In turn, `CC(C)(C)C(NC(=O)C=Cc1ccc(OP(=O)(O)O)cc1)C(=O)N1CCCC1C(=O)N(Cc1ccc(-c2ccccc2)cc1)c1ccccc1` (stereo not shown) [drawing 70: H, 4-phenyl] showed an IC50 of 1000 to 50000 nM.
`CC(C)(C)c1ccc(CN(C(=O)C2CCCN2C(=O)C(NC(=O)C=Cc2ccc(OP(=O)(O)O)cc2)C(C)(C)C)c2ccccc2)cc1` (stereo not shown) [drawing 70: H, 4-t-butyl] registered an IC50 of 1000 to 50000 nM.

Staying with this experiment, now noted: Table 5; STAT6 binding.
Molecule `CC(=O)NCc1cccc(CN(Cc2cccc(C(N)=O)c2)C(=O)C2CCCN2C(=O)C(NC(=O)C=Cc2ccc(OP(=O)(O)O)cc2)C(C)(C)C)c1` (stereo not shown) [drawing 71: 3-CONH2,3-CH2NHAc] came in with an IC50 of 1000 to 50000 nM.
Still for that read-out and setting: in the case of `CC(=O)NCc1cccc(CN(Cc2ccc(C(N)=O)cc2)C(=O)C2CCCN2C(=O)C(NC(=O)C=Cc2ccc(OP(=O)(O)O)cc2)C(C)(C)C)c1` (stereo not shown) [drawing 71: 4-CONH2,3-CH2NHAc] it was under 1000 nM.
On the same count and under the same terms, in the case of `CC(=O)NCc1ccc(CN(Cc2ccc(C(N)=O)cc2)C(=O)C2CCCN2C(=O)C(NC(=O)C=Cc2ccc(OP(=O)(O)O)cc2)C(C)(C)C)cc1` (stereo not shown) [drawing 71: 4-CONH2,4-CH2NHAc] it was under 1000 nM.
On the same count and under the same terms, with `CC(C)(C)C(NC(=O)C=Cc1ccc(OP(=O)(O)O)cc1)C(=O)N1CCCC1C(=O)N(Cc1ccc(C#N)cc1)Cc1ccc(C(N)=O)cc1` (stereo not shown) [drawing 71: 4-CONH2,4-CN] the figure was under 1000 nM.
In turn, `CC(C)(C)C(NC(=O)C=Cc1ccc(OP(=O)(O)O)cc1)C(=O)N1CCCC1C(=O)N(Cc1ccccc1)Cc1ccc(C(N)=O)cc1` (stereo not shown) [drawing 71: 4-CONH2, H] registered an IC50 of under 1000 nM.
